Data published in ChEMBL document CHEMBL1201862, “PubChem BioAssay data set” (2004).
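Dose response: 5 concentrations. Exposure: 48 h. Format: 96-well plates. Endpoint: linear interpolation; highest concentration if not reached. Here, GI50 denotes the concentration required for 50% inhibition of growth.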 The source made the active and inactive calls. Cut-off read from the data, not from the text of the source: active = GI50 up to about 1.1 µM and inactive = higher.

Legend:
Test in all cases: inhibition of tumour cell growth, NCI panel, 48 h
A549 = tested on: A549
CCRF-CEM = tested on: CCRF-CEM
EKVX = tested on: EKVX
HCT-116 = tested on: HCT-116
HT-29 = tested on: HT-29
Malme-3M = tested on: Malme-3M
NCI-H226 = tested on: NCI-H226
OVCAR-4 = tested on: OVCAR-4
RPMI-8226 = tested on: RPMI-8226
SF-268 = tested on: SF-268
SF-295 = tested on: SF-295
SK-MEL-2 = tested on: SK-MEL-2
SN12C = tested on: SN12C
SR = tested on: SR
SW-620 = tested on: SW-620
TK-10 = tested on: TK-10

Measured: GI50

Cc1ccc2c(C)c3ccc4ccccc4c3c[n+]2c1.[O-][Cl+3]([O-])([O-])[O-]
inactive: A549 16.3 µM | CCRF-CEM 11.1 µM | EKVX 13.7 µM | HCT-116 27.5 µM | HT-29 32.4 µM | Malme-3M 2.88 µM | NCI-H226 5.81 µM | OVCAR-4 16 µM | RPMI-8226 16.6 µM | SF-268 2.57 µM | SF-295 23.1 µM | SK-MEL-2 13.9 µM | SN12C 4.68 µM | SR 12 µM | SW-620 10.1 µM | TK-10 53.5 µM

N#Cc1ccc(/C=N/C23CC4CC(CC(C4)C2)C3)cc1
inactive: A549 > 100 µM | CCRF-CEM 96.8 µM | EKVX > 100 µM | HCT-116 39.4 µM | HT-29 63.1 µM | Malme-3M > 100 µM | NCI-H226 > 100 µM | OVCAR-4 > 100 µM | RPMI-8226 > 100 µM | SF-268 > 100 µM | SF-295 > 100 µM | SK-MEL-2 > 100 µM | SN12C > 100 µM | SR > 100 µM | SW-620 > 100 µM | TK-10 > 100 µM

O=c1[nH]nc2ccccc2c1Cc1ccccc1
inactive: A549 > 100 µM | CCRF-CEM > 100 µM | EKVX > 100 µM | HCT-116 > 100 µM | HT-29 > 100 µM | Malme-3M > 100 µM | NCI-H226 > 100 µM | OVCAR-4 > 100 µM | RPMI-8226 > 100 µM | SF-268 > 100 µM | SF-295 > 100 µM | SK-MEL-2 > 100 µM | SN12C > 100 µM | SW-620 > 100 µM | TK-10 > 100 µM

CC(=O)C1C(=O)N(C(C)C)C[C@@H]2CCC(=O)C[C@H]12 (stereo not given in full)
inactive: A549 > 100 µM | CCRF-CEM > 100 µM | EKVX > 100 µM | HCT-116 > 100 µM | HT-29 > 100 µM | Malme-3M > 100 µM | OVCAR-4 > 100 µM | RPMI-8226 > 100 µM | SF-268 > 100 µM | SF-295 > 100 µM | SK-MEL-2 > 100 µM | SN12C > 100 µM | SW-620 > 100 µM | TK-10 > 100 µM

CCN(N=O)C1C2(CCCC2)NC(=O)C12CCCC2 (stereo not given)
inactive: A549 > 100 µM | CCRF-CEM > 100 µM | EKVX > 100 µM | HCT-116 > 100 µM | HT-29 > 100 µM | Malme-3M > 100 µM | NCI-H226 > 100 µM | OVCAR-4 > 100 µM | RPMI-8226 > 100 µM | SF-268 > 100 µM | SF-295 > 100 µM | SN12C > 100 µM | SR > 100 µM | SW-620 > 100 µM | TK-10 > 100 µM

CCOC(=O)c1nc2ccc(Cl)cc2c2c1CCO2
inactive: A549 > 100 µM | CCRF-CEM 79.4 µM | EKVX > 100 µM | HCT-116 57 µM | HT-29 > 100 µM | Malme-3M > 100 µM | NCI-H226 > 100 µM | OVCAR-4 70.1 µM | SF-268 90.8 µM | SF-295 > 100 µM | SN12C 82 µM | SW-620 > 100 µM | TK-10 76.7 µM

CC(C)C1CCC/C=C/C=C/C=C/C=C/C(OC2OC(C)C(O)C(N)C2O)CC2OC(O)(CC(O)CC(O)C(O)CCC(=O)O1)CC(O)C2C(=O)O (stereo not given)
inactive: A549 > 52.5 µM | CCRF-CEM > 52.5 µM | HCT-116 > 52.5 µM | HT-29 > 52.5 µM | Malme-3M > 52.5 µM | RPMI-8226 > 52.5 µM | SF-268 > 52.5 µM | SF-295 > 52.5 µM | SN12C > 52.5 µM | SR > 52.5 µM | SW-620 > 52.5 µM

C=CNC(=O)NC(=O)CSc1nc(=O)c(-c2ccccc2NC(=O)C(F)(F)F)n[nH]1
inactive: A549 > 100 µM | CCRF-CEM > 100 µM | EKVX 75 µM | HCT-116 > 100 µM | HT-29 > 100 µM | Malme-3M 15.5 µM | NCI-H226 10.7 µM | SF-268 37.4 µM | SF-295 50 µM | SK-MEL-2 > 100 µM | SN12C > 100 µM | SR 84.3 µM | SW-620 > 100 µM | TK-10 68.9 µM

Cc1c2n(c(=O)[nH]c1=O)C1OC(CO)C(O2)C1O (stereo not given)
inactive: A549 > 100 µM | CCRF-CEM > 100 µM | EKVX > 100 µM | HCT-116 > 100 µM | HT-29 > 100 µM | NCI-H226 > 100 µM | OVCAR-4 > 100 µM | RPMI-8226 > 100 µM | SF-268 > 100 µM | SF-295 > 100 µM | SK-MEL-2 > 100 µM | SN12C > 100 µM | SR > 100 µM | SW-620 > 100 µM | TK-10 > 100 µM

O=C(c1ccc(Cl)cc1)N(C(=S)N1CCN(c2ccccn2)CC1)C1CCCCC1
inactive: A549 45.1 µM | CCRF-CEM 48.5 µM | HCT-116 36.6 µM | HT-29 55.3 µM | Malme-3M > 100 µM | NCI-H226 18.2 µM | OVCAR-4 > 100 µM | RPMI-8226 25.5 µM | SF-268 27.3 µM | SF-295 74.1 µM | SK-MEL-2 > 100 µM | SN12C > 100 µM | SR 41.1 µM | SW-620 83.6 µM | TK-10 > 100 µM

CCc1c(Cc2[nH]c(Cc3[nH]c(C=O)c(C)c3CC)c(CC)c2CC)[nH]c(C=O)c1C
inactive: A549 > 100 µM | CCRF-CEM 66.7 µM | EKVX > 100 µM | HCT-116 > 100 µM | HT-29 > 100 µM | Malme-3M > 100 µM | NCI-H226 > 100 µM | RPMI-8226 > 100 µM | SF-268 > 100 µM | SF-295 > 100 µM | SK-MEL-2 > 10 µM | SN12C > 100 µM | SR > 100 µM | SW-620 > 100 µM | TK-10 > 100 µM

O=C(O)c1ccccc1/N=N/c1ccc2oc(=O)c(C(=O)Nc3ccccc3)cc2c1
inactive: A549 40.8 µM | CCRF-CEM 28.6 µM | EKVX 30.1 µM | HCT-116 29.6 µM | HT-29 38.4 µM | Malme-3M 23.7 µM | NCI-H226 25.7 µM | RPMI-8226 19.1 µM | SF-295 50.2 µM | SN12C 45.1 µM | SW-620 49.7 µM | TK-10 61.5 µM

COC(=O)Cc1cc(=O)oc2c1C(=O)CCC2
inactive: A549 > 100 µM | CCRF-CEM > 100 µM | EKVX > 100 µM | HCT-116 > 100 µM | HT-29 > 100 µM | Malme-3M > 100 µM | NCI-H226 > 100 µM | OVCAR-4 > 100 µM | RPMI-8226 > 100 µM | SF-268 > 100 µM | SF-295 > 100 µM | SK-MEL-2 > 100 µM | SN12C > 100 µM | SW-620 > 100 µM | TK-10 > 100 µM

Cc1c(C(=O)/C=C/c2c(Cl)cccc2Cl)c(=O)n(-c2ccccc2)n1C
inactive: A549 15.1 µM | CCRF-CEM 2.74 µM | EKVX 50.1 µM | HCT-116 8.53 µM | HT-29 18 µM | Malme-3M 53.8 µM | NCI-H226 21.3 µM | SF-268 24.1 µM | SF-295 26 µM | SK-MEL-2 26.1 µM | SN12C 24.4 µM | SW-620 7 µM | TK-10 54.7 µM

C[S+](C)CCOC(=O)C(=[N+]=[N-])c1ccc([N+](=O)[O-])cc1
inactive: A549 > 100 µM | CCRF-CEM > 100 µM | EKVX > 100 µM | HCT-116 > 100 µM | HT-29 > 100 µM | Malme-3M > 100 µM | NCI-H226 > 100 µM | OVCAR-4 > 100 µM | RPMI-8226 > 100 µM | SF-268 > 100 µM | SF-295 > 100 µM | SK-MEL-2 > 100 µM | SN12C > 100 µM | SW-620 > 100 µM | TK-10 > 100 µM

COC1(OC)C(N(C)C)=C(Cl)C(=O)/C1=C/C=O
inactive: A549 > 100 µM | CCRF-CEM 20.9 µM | HCT-116 > 100 µM | HT-29 > 100 µM | Malme-3M > 100 µM | NCI-H226 > 100 µM | OVCAR-4 > 100 µM | RPMI-8226 61 µM | SF-268 > 100 µM | SF-295 > 100 µM | SN12C > 100 µM | SR 57.3 µM | SW-620 97.1 µM | TK-10 > 100 µM

COC1OC(C)C(O)CC1OS(=O)(=O)c1ccc(C)cc1 (stereo not given)
inactive: A549 > 100 µM | CCRF-CEM > 100 µM | EKVX > 100 µM | HCT-116 > 100 µM | HT-29 > 100 µM | Malme-3M > 100 µM | NCI-H226 > 100 µM | OVCAR-4 > 100 µM | RPMI-8226 > 100 µM | SF-268 > 100 µM | SF-295 > 100 µM | SK-MEL-2 > 100 µM | SN12C > 100 µM | SW-620 > 100 µM | TK-10 > 100 µM

CC(C)(C)c1cc(C(P(=O)(O)O)P(=O)(O)O)cc(C(C)(C)C)c1O
inactive: A549 > 100 µM | CCRF-CEM > 100 µM | EKVX > 100 µM | HCT-116 > 100 µM | HT-29 > 100 µM | Malme-3M > 10 µM | NCI-H226 > 100 µM | OVCAR-4 > 100 µM | RPMI-8226 > 100 µM | SF-268 > 100 µM | SF-295 > 100 µM | SK-MEL-2 > 100 µM | SW-620 > 100 µM | TK-10 > 100 µM

Nc1ccn(C2(CO)C=C(CO)C(O)C2O)c(=O)n1 (stereo not given)
inactive: A549 > 25.8 µM | EKVX > 25.8 µM | HCT-116 > 25.8 µM | Malme-3M > 25.8 µM | NCI-H226 > 25.8 µM | OVCAR-4 > 25.8 µM | RPMI-8226 > 25.8 µM | SF-268 > 25.8 µM | SK-MEL-2 > 25.8 µM | SN12C > 25.8 µM | SR > 25.8 µM | SW-620 > 25.8 µM | TK-10 > 25.8 µM
